For `CCCCN(C(=O)O[C@H]1C[N+]2(CCCOc3ccc(F)cc3)CCC1CC2)c1ccccc1.[Cl-]`, the melting point was 126 °C.
`CCCCN(C(=O)O[C@H]1C[N+]2(CCCc3cccs3)CCC1CC2)c1ccccc1.[Br-]` showed a melting point of 127 °C.
Compound `O=C(O[C@H]1C[N+]2(CCOc3ccccc3)CCC1CC2)N(Cc1cccs1)c1ccccc1.[Br-]` has a melting point of 133 °C.
`C=CC[N+]12CCC(CC1)[C@@H](OC(=O)N(Cc1cccs1)c1ccccc1)C2.[Br-]` gave a melting point of 110 °C.
Work on `C[N+]12CCC(CC1)[C@@H](OC(=O)N(CCc1ccccc1)c1ccccc1)C2.[Br-]` yielded a melting point of 203 °C.
`O=C(O[C@H]1C[N+]2(CCOc3ccccc3)CCC1CC2)N(Cc1cc(F)c(F)c(F)c1)c1cccc(F)c1.[Br-]` showed a melting point of 173.9 to 175.5 °C.
`O=C(O[C@H]1C[N+]2(CCOc3ccccc3)CCC1CC2)N(CC1CCCCC1)c1ccccc1F.[Br-]` showed a melting point of 73.1 to 74.5 °C.
With `O=C(O[C@H]1C[N+]2(CCCc3ccccc3)CCC1CC2)N(CC1CCCCC1)c1ccccc1F.[Br-]` the melting point was 73.3 to 74.1 °C.
For `O=C(O[C@H]1C[N+]2(CCCc3cccs3)CCC1CC2)N(Cc1ccccc1)c1ccccc1.[Br-]`, the melting point was 95 °C.
Compound `O=C(O[C@H]1C[N+]2(CCOc3ccccc3)CCC1CC2)N(Cc1ccccc1)c1ccccc1.[Br-]` has a melting point of 117 °C.
For `O=C(O[C@H]1C[N+]2(CCCc3cccs3)CCC1CC2)N(Cc1cccs1)Cc1cccs1.[Br-]`, the melting point was 143 °C.
`Cc1cccc(N(Cc2cc(F)c(F)cc2F)C(=O)O[C@H]2C[N+]3(CCOc4ccccc4)CCC2CC3)c1.[Br-]` showed a melting point of 137.3 to 139.1 °C.
